Measured values published in patent US20200255828A1, “METHODS AND COMPOSITIONS FOR ALTERING FUNCTION AND STRUCTURE OF CHROMATIN LOOPS AND/OR DOMAINS” (THE BROAD INSTITUTE, INC., priority 2017, published 2020).

Experiments:
RAD21-mAC cells = experiment: Gene expression changes between untagged HCT-116 cells and auxin-treated RAD21-mAC cells; assay type: cell-based; details: auxin-treated RAD21-mAC cells compared with untagged HCT-116 cells
Description: To our surprise, Applicants only identified 68 cell type specific loops (compared to […] each per pair of cell types in Rao et al 2014). In order to increase statistical power, Applicants identified 518 loops that had been called in one of our cell types in Rao et al 2014 (HMEC, IMR90, K562, HUVEC, HeLa, NHEK) but not in GM12878, or vice versa and had been associated with 10-fold upregulation of a gene whose promoter lay at the loop anchor. Applicants sought to then identify cases where these loop-gene pairs were present in HCT-116 to then examine the results of loop loss. However, only 15 of the 518 loops were conserved in HCT-116. […] Alternatively, it is possible that the tagging of cohesin and resulting potential loss of stability results in preferential loss of cell type specific loops. […] In fact, it may be the case that some other regulatory event catalyzes both loop formation and gene activation, or that gene activation itself enables loop formation.

HCT-116 RAD21-mAC cells = experiment: In situ Hi-C: contact domains and genome compartmentalization (Arrowhead corner score, eigenvector, sliding correlation score); assay type: cell-based, human
Description: Domains were annotated in both untreated and treated maps using Arrowhead (Durand et al., 2016b; Rao et al., 2014). Domains were called at 5 kb and 10 kb resolutions using default parameters and merged (retaining the 5 kb domain annotation for any pair of domains annotated in both the 5 kb and 10 kb annotations). Applicants annotated 9,845 domains in our untreated maps and 2,090 domains in our treated maps.
The most common method used for classifying Hi-C patterns is the principal component (PC) approach, which Applicants introduced in (Lieberman-Aiden et al., 2009). In this approach, each intrachromosomal contact matrix is converted to an observed/expected matrix, and the first principal component of this matrix is used to bifurcate the data into two clusters.
Applicants first calculated the first three principal components of the 25-kb resolution observed/expected matrix for each chromosome (constructed using Juicer) using scikit learn's RandomizedPCA function. Applicants chose the principal component most correlated with GC content and assigned sign such that the vector was positively correlated with the GC content vector. Applicants then calculated the correlation of the eigenvector for each chromosome between untreated and treated maps. The mean correlation was 0.968.
To identify transitions in compartment state at higher resolution, Applicants used a combination of techniques. First, Applicants calculated an edge score using an algorithm similar to Canny edge detection. For every 25 kb locus in the genome, Applicants looked at the corresponding column of the 25 kb log 2(observed/expected) matrix. For every pixel (i,j) in column j, Applicants calculated a gradient=[i,j:j+3]−[i,j−4,j−1]. Applicants then searched for stretches of at least 7 pixels in the column with a gradient x such that abs(x) was greater than 0.5. […] Finally, Applicants summed the number of pixels in a column belonging to an edge to calculate the edge score for a locus. Applicants then called local peaks in this track which could correspond to compartment state transitions since a compartment state transition at locus I will create an edge between locus i−1 and i.
As described in Section V.a.3 of Rao et al., 2014, this is akin to measures in finance that correlate returns of prices to identify similarities between stocks. To calculate this sliding derivative correlation score, Applicants calculated the gradient in the log 2(observed/expected) matrix over every boundary called in our edge score track. More specifically, for every locus i, and all boundaries j in boundary set J that were within 15 Mb of i, Applicants calculated the difference of mean ([j:j+5,i]) and mean ([j−6:j−1,i]). Applicants then calculated the Spearman correlation coefficient of these two vectors (one vector for the gradients at all boundaries j in J for the pixels upstream of i, and one vector for the pixels downstream of i). Applicants excluded the derivative signal at pixels not located at compartment state transitions as defined by the edge score to reduce noise, reasoning that pixels inside compartment intervals were unlikely to contribute meaningful rises/falls in contact probability. Similarly, Applicants only included pixels within 15 mb of i to reduce the noise arising from sparsity far off the diagonal.
Applicants then identified compartment boundaries by calling local peaks in the edge score track and local valleys in the sliding derivative correlation score track and merging the two peak call lists.
To assess the presence and strength of contact domains after auxin treatment, Applicants used the Arrowhead algorithm (Durand et al., 2016b; Rao et al., 2014). The Arrowhead algorithm calculates a corner score for every pixel, where higher corner score values represent a higher likelihood that a pixel is at the corner of a domain (see Section IV. a.3 of the Extended Experimental Procedures of Rao et al., 2014). […]

For `O=C(O)Cc1c[nH]c2ccccc12` [auxin, indole-3-acetic acid], the “genes with a greater than 5-fold change in expression” value (RAD21-mAC cells) was 3, the “dip in sliding correlation in treated cells, H3K27me3 transitions spanned by loop domains” value (HCT-116 RAD21-mAC cells; 209 transitions, untreated 0.01 increase) was 0.03 and the “dip in sliding correlation in treated cells, H3K27Ac transitions spanned by loop domains” value (HCT-116 RAD21-mAC cells; 264 transitions, untreated 0.02) was 0.19. The “dip in sliding correlation in treated cells, H3K27Ac transitions at loop domain boundaries” value (HCT-116 RAD21-mAC cells; 307 transitions, untreated 0.41) was 0.49, the “decrease in sliding correlation score in treated cells, compartment boundaries contained within loop domains” value (HCT-116 RAD21-mAC cells; 349 boundaries, untreated 0.10) was 0.31 and the “decrease in sliding correlation score in treated cells, H3K27Ac transitions at loop anchors” value (HCT-116 RAD21-mAC cells; 381 transitions, untreated 0.10) was 0.26. The “dip in sliding correlation in treated cells, H3K27me3 transitions at loop domain boundaries” value (HCT-116 RAD21-mAC cells; 384 transitions, untreated 0.29) was 0.33, the “decrease in sliding correlation score in treated cells, compartment boundaries at loop domain anchors” value (HCT-116 RAD21-mAC cells; 389 boundaries, untreated 0.35) was 0.53 and the “decrease in sliding correlation score in treated cells, H3K27me3 transitions spanned by loops” value (HCT-116 RAD21-mAC cells; 391 transitions, untreated 0.27) was 0.31. For the same compound, the “decrease in sliding correlation score in treated cells, H3K27Ac transitions spanned by loops” value (HCT-116 RAD21-mAC cells; 426 transitions, untreated 0.41) was 0.50, the “decrease in sliding correlation score in treated cells, H3K27me3 transitions at loop anchors” value (HCT-116 RAD21-mAC cells; 469 transitions, untreated 0.03) was 0.12 and the “mean Pearson's r of Hi-C correlation map eigenvectors, untreated vs auxin treated” value (HCT-116 RAD21-mAC cells; across all chromosomes) was 0.968.
